Laboratory results from paper PMC10707934, “Design and Synthesis of Novel α-Methylchalcone Derivatives, Anti-Cervical Cancer Activity, and Reversal of Drug Resistance in HeLa/DDP Cells” (Molecules, 2023).

Legend:
[1] = tested on: HeLa/DDP cells; experiment: MTT anti-cisplatin-resistant cervical cancer activity, HeLa/DDP; type: cell-based, human; details: for resistance index (RI): HeLa/DDP versus parental HeLa; for resistance index (RI) / IC50: 48 h; for IC50: HeLa/DDP, MTT, mean ± SD
Procedure: (§1) All cell types, at a volume of 200 µL per well, were inoculated in 96-well plates at a density of 2.5 × 10^4 cells / mL and cultured for 24 h in an incubator with 5% CO2 at 37 °C. The old culture medium was replaced with 200 µL of fresh medium per well containing positive compounds, at concentrations of 1, 6.25, 12.5, 25, 50, and 100 μM. After 48 h of culture, 20 µL per well of 5 mg·mL^−1 MTT solution was added. After 4 h of culture, the old solution was discarded, and 150 µL per well of DMSO solution was added. Using an enzyme labeler (Thermo Fisher Scientific, Multiskan GO, Waltham, MA, USA), the plates were shaken for 10 min, OD values were determined at 490 nm, and the inhibition rate was calculated. Non-linear regression fitting of the cell growth rate was carried out using SPSS 23.0, and the IC50 of the compound was calculated. The inhibition rate was calculated using the formula: [(ODempty − ODtest)/(ODempty − ODnegative group)] × 100%, (ODempty blank group absorbance, ODtest absorbance of administration group, ODnegative group without cell culture medium). Each group contained six compound holes, and the experimental results averaged three trials. Complete medium containing only cells was used as the blank control; a complete medium without cells as was used as the negative control; and cisplatin, paclitaxel, and adriamycin were used as the positive controls. The concentration gradient was the same as that used for compounds 3a–3p.
To mitigate the detrimental consequences arising from the fixation of resistance reversal agents, concentrations that yielded a tumor cell proliferation rate reduction of less than 10% were selected. Consequently, the inhibitory efficacy of compound 3k against HeLa/DDP cells was assessed in conjunction with cisplatin at concentrations of 0.25, 0.5, and 1 μM. The experimental procedure employed was akin to that elucidated in Section 3.3.2. The impact of verapamil (6 μM) and 3k (0.25, 0.5, and 1 μM) on P-gp expression was ascertained via Western blot experiments, employing the same methodology delineated in Section 3.3.4.

[2] = tested on: SiHa cells; experiment: MTT anti-proliferation assay, SiHa; type: cell-based, human; details: 48 h, mean ± SD
Procedure: as §1

[3] = tested on: human cervical epithelial cells H8; experiment: MTT toxicity assay, normal cervical epithelial cells H8; type: cell-based; details: 48 h, mean ± SD
Procedure: as §1

[4] = tested on: HeLa/DDP cells; experiment: Transwell migration assay, HeLa/DDP; type: cell-based, human; details: 24 h, control 497
Procedure: (§2) HeLa (5 × 10^4 cells) was suspended in 200 μL of FBS-free medium. The top chamber contained the vehicle and various concentrations of compound 3k (2.5, 5, and 10 μM), cisplatin (20 μM) and chalcone (20 μM). The lower chamber was filled with 600 μL of medium containing 10% FBS. After incubating at 37 °C for 24 h, the cells on the top side of the Transwell membrane were removed with a cotton tip. Cells were fixed and stained with 4% paraformaldehyde (LEAGENE BIOTECHNOLOGY, Cat:DF0135, Lot:0823A23, Zhongguancun, Haidian District, Beijing, China) and 0.1% crystal violet solutions (Leagene Biotechnology, Cat:DZ0055, Lot:0508A23, Zhongguancun, Haidian District, Beijing, China) for 30 min to fix cells trapped on the perforated side of the membrane.
The experimental methods for the effects of compound 3k, cisplatin, and chalcone on HeLa/DDP cell invasion and migration were the same as in Section 3.3.6.

[5] = tested on: HeLa cells; experiment: Transwell Matrigel invasion assay, HeLa; type: cell-based, human
Procedure: The Transwell ([…], Corning Incorporated, New York, NY, USA) was precoated using 50 μL Matrigel for 5 h at 37 °C to achieve solidification. HeLa cells was collected and suspended in a serum-free medium containing varying concentrations (0, 2.5, 5, and 10 μM) of compound 3k, along with 20 μM cisplatin and chalcone. These cell suspensions were then added to the upper wells of a permeabilization chamber at a density of 5 × 10^5 cells/mL. In the lower wells, 600 μL of DMEM containing 10% FBS was added, which had been prepared using 50 μL of Matrigel (diluted 1:8 with serum-free medium from Corning/BD Biosciences). After 24 h of incubation at 37 °C, the invasion cells were fixed using 4% paraformaldehyde and stained using 0.1% crystal violet for 30 min. Then, the chambers were washed using PBS and left to dry. Images were photographed using an inverted fluorescence microscope (Leica Instruments Co., Ltd., Microsystems CMS GmbH, Weizler, Hesse, Germany) and counted using Image J software (V1.8.0.112) for three independent fields randomly.

[6] = tested on: HeLa cells; experiment: Transwell migration assay, HeLa; type: cell-based, human; details: 24 h, control 1176
Procedure: as §2

IC50 ([1]; Homo sapiens) [µM] | SMILES | resistance index (RI) [1] | IC50 [1] [µM] | IC50 [2] [µM] | IC50 [3] [µM] | number of migrated cells ([4]; 20 μM) | number of cells undergoing invasion ([5]; 24 h, 20 μM) | inhibition rate against HeLa/DDP cell lines ([1]; HeLa/DDP, 0.25, 0.5, or 1 μM) | IC50 ([2]; Homo sapiens) [µM] | IC50 ([3]; Homo sapiens, Epithelial cell) [µM] | number of migrated cells ([6]; 2.5 μM) | number of migrated cells ([6]; 5 μM) | number of migrated cells ([6]; 10 μM) | number of migrated cells ([4]; 2.5 μM) | number of migrated cells ([4]; 5 μM) | number of migrated cells ([4]; 10 μM) | number of cells undergoing invasion compared to the control group ([5]; 24 h, 2.5, 5, and 10 μM)
– | N.N.[Cl][Pt][Cl] [Cisplatin, cisplatin, reference compound] | 7.90 | 103 ± 3.6 | 20.7 ± 1.85 | 25.2 ± 1.29 | 395 | 237 | – | – | – | – | – | – | – | – | – | –
9.72 ± 0.73 | COc1ccc(/C=C(\C)C(=O)c2ccc(Cl)c(Cl)c2)cc1OC [Compound 3k, (E)-1-(3,4-Dichlorophenyl)-3-(3,4-dimethoxyphenyl)-2-methylprop-2-en-1-one] | 1.07 | – | – | – | – | – | less than 10% | 14.5 ± 0.98 | > 100 | 518 | 388 | 166 | 251 | 179 | 113 | significant decrease in the number of cells undergoing invasion
